Measured values from US6350764B2, “Heteroaryl aminoguanidines and alkoxyguanidines and their use as protease inhibitors” (3-Dimensional Pharmaceuticals, Inc., priority 1997, dated 2002).
Structures can show the parent of a compound that is named as a salt.

What was measured:
Format in all cases: biochemical
[1] = target: T1, human α-thrombin (Homo sapiens, UniProt P00734); test: In vitro inhibition of purified enzymes: thrombin, hydrolysis of N-succinyl-Ala-Ala-Pro-Arg-p-nitroanilide; conditions: 37° C., pH 7.5
T1 construct: Purified human a-thrombin was diluted into assay buffer; purchased Enzyme Research Laboratories (South Bend)
Description: (§1) Reagents: All buffer salts were obtained from Sigma Chemical Company (St. Louis, Mo.), and were of the highest purity available. The enzyme substrates, N-benzoyl-Phe-Val-Arg-p-nitroaniide (Sigma B7632) N-benzoyl-Ile-Glu-Gly-Arg-p-nitroanilide hydrochloride (Sigma B2291), N-p-Tosyl-Gly-Pro-Lys-p-nitroanilide (Sigma T6140), N-succinyl-Ala-Ala-Pro-Phe-p-nitroanilide (Sigma S7388) and N-CBZ-Val-Gly-Arg-p-nitroanilide (Sigma C7271) were obtained from Sigma.
(§2) Human α-thrombin, human factor Xa and human plasmin were obtained from Enzyme Research Laboratories (South Bend, Id.). Bovine α-chymotrypsin (Sigma C4129), bovine trypsin (Sigma T8642) and human kidney cell urokinase (Sigma U5004) were obtained from Sigma. Human leukocyte elastase was obtained from Elastin Products (Pacific, Mo.).
Ki Determinations: All assays are based on the ability of the test compound to inhibit the enzyme catalyzed hydrolysis of a peptide p-nitroanilide substrate. […] The final concentrations for each of the substrates is listed below. In general, substrate concentrations are lower than the experimentally determined value for Km. Test compounds are prepared as a 1.0 mg/ml solution in DMSO. Dilutions are prepared in DMSO yielding 8 final concentrations encompassing a 200 fold concentration range. Enzyme solutions are prepared at the concentrations listed below in assay buffer.
(§3) Reactions were initiated by the addition of a […] aliquot of enzyme and the absorbance increase at 405 nm is recorded for 15 minutes. Data corresponding to less than 10% of the total substrate hydrolysis were used in the calculations. The ratio of the velocity (rate of change in absorbance as a function of time) for a sample containing no test compound is divided by the velocity of a sample containing test compound, and is plotted as a function of test compound concentration. The data are fit to a linear regression, and the value of the slope of the line calculated. The inverse of the slope is the experimentally determined Ki value.
Thrombin: Thrombin activity was assessed as the ability to hydrolyze the substrate N-succinyl-Ala-Ala-Pro-Arg-p-nitroanilide. […] Final reagent concentrations were: [thrombin]=0.5 nM, [substrate N-succinyl-Ala-Ala-Pro-Arg-p-nitroanilide]=32 mM.

[2] = target: T2, human factor Xa (Homo sapiens, UniProt P00742); test: In vitro inhibition of purified enzymes: Factor X [FXa], hydrolysis of N-benzoyl-Ile-Glu-Gly-Arg-p-nitroanilide; conditions: for Ki: 37° C., pH 7.5
T2 construct: purchased Enzyme Research Laboratories (South Bend)
Description: as §1, with “Sigma. N-succinyl-Ala-Ala-Pro-Arg-p-nitroanilide (BACHEM L-1720) and N-succinyl-Ala-Ala-Pro-Val-p-nitroanilide (BACHEM L-1770) were obtained from BACHEM (King of Prussia, Pa.).” for “Sigma.”
as §2
(§4) Ki Determinations: All assays are based on the ability of the test compound to inhibit the enzyme catalyzed hydrolysis of a peptide p-nitroanilide substrate. In atypical Ki determination, substrate is prepared in DMSO, and diluted into an assay buffer consisting of 50 mM HEPES, 200 mM NaCl, pH 7.5. The final concentrations for each of the substrates is listed below. In general, substrate concentrations are lower than the experimentally determined value for Km. Test compounds are prepared as a 1.0 mg/ml solution in DMSO. Dilutions are prepared in DMSO yielding 8 final concentrations encompassing a 200 fold concentration range. Enzyme solutions are prepared at the concentrations listed below in assay buffer.
as §3, with “In a typical Ki determination, into each well of a 96 well plate is pipetted […] of substrate solution, […] of test compound solution, and the plate allowed to thermally equilibrate at 37° C. in a Molecular Devices plate reader for>15 minutes. Reactions” for “Reactions”
Factor X [FXa]: FXa activity was assessed as the ability to hydrolyze the substrate N-benzoyl-Ile-Glu-Gly-Arg-p-nitroanilide hydrochloride. […] Final DMSO concentration was 4.3%. Purified activated human Factor X was diluted into assay buffer to a concentration of 300 nM. Final reagent concentrations were: [FXa]=10 nM, [N-benzoyl-Ile-Glu-Gly-Arg-p-nitroanilide hydrochloride]=51 mM.

[3] = target: T3, bovine α-chymotrypsin (Bos taurus, UniProt P00766); test: In vitro inhibition of purified enzymes: chymotrypsin, hydrolysis of N-succinyl-Ala-Ala-Pro-Phe-p-nitroanilide
T3 construct: Bovine α-chymotrypsin (Sigma C4129); purchased Sigma C4129
Description: as §1, with “Sigma. N-succinyl-Ala-Ala-Pro-Arg-p-nitroanilide (BACHEM L-1720) and N-succinyl-Ala-Ala-Pro-Val-p-nitroanilide (BACHEM L-1770) were obtained from BACHEM (King of Prussia, Pa.).” for “Sigma.”
as §2, §4
as §3, with “In a typical Ki determination, into each well of a 96 well plate is pipetted […] of substrate solution, […] of test compound solution, and the plate allowed to thermally equilibrate at 37° C. in a Molecular Devices plate reader for>15 minutes. Reactions” for “Reactions”
Chymotrypsin: Chymotrypsin activity was assessed as the ability to hydrolyze N-succinyl-Ala-Ala-Pro-Phe-p-nitroanilide. […] Final DMSO concentration was 4.3%. Purified bovine chymotrypsin was diluted into assay buffer to a concentration of 81 nM. Final reagent concentrations were: [Chymotrypsin]=2.7 nM, [N-succinyl-Ala-Ala-Pro-Phe-p-nitroanilide]=14 mM.

[4] = target: T4, human leukocyte elastase (Homo sapiens, UniProt P08246); test: In vitro inhibition of purified enzymes: elastase, hydrolysis of N-succinyl-Ala-Ala-Pro-Val-p-nitroanilide
T4 construct: purchased Elastin Products (Pacific, Mo.)
T4 sequence (P08246 30-247 limits assumed): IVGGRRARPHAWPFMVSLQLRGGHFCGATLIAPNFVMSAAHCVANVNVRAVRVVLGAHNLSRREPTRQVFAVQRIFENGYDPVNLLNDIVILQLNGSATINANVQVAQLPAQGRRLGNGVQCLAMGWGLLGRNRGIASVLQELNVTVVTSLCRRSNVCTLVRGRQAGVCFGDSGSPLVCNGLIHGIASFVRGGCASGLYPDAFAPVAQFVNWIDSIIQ
Description: as §1, with “Sigma. N-succinyl-Ala-Ala-Pro-Arg-p-nitroanilide (BACHEM L-1720) and N-succinyl-Ala-Ala-Pro-Val-p-nitroanilide (BACHEM L-1770) were obtained from BACHEM (King of Prussia, Pa.).” for “Sigma.”
as §2, §4
as §3, with “In a typical Ki determination, into each well of a 96 well plate is pipetted […] of substrate solution, […] of test compound solution, and the plate allowed to thermally equilibrate at 37° C. in a Molecular Devices plate reader for>15 minutes. Reactions” for “Reactions”
Elastase: Elastase activity was assessed as the ability to hydrolyze N-succinyl-Ala-Ala-Pro-Val-p-nitroanilide. Substrate solutions were prepared at a concentration of 19 mM (19 mM<<Km=89 mM) in assay buffer. Final DMSO concentration was 4.3%. Purified human leukocyte elastase was diluted into assay buffer to a concentration of 750 nM. Final reagent concentrations were: [Elastase]=25 nM, [N-succinyl-Ala-Ala-Pro-Val-p-nitroanilide]=19 mM.

[5] = target: T5, human plasmin (Homo sapiens, UniProt P00747); test: In vitro inhibition of purified enzymes: plasmin, hydrolysis of N-p-Tosyl-Gly-Pro-Lys-p-nitroanilide
T5 construct: Purified human plasmin was diluted into assay buffer; purchased Enzyme Research Laboratories (South Bend)
Description: as §1, with “Sigma. N-succinyl-Ala-Ala-Pro-Arg-p-nitroanilide (BACHEM L-1720) and N-succinyl-Ala-Ala-Pro-Val-p-nitroanilide (BACHEM L-1770) were obtained from BACHEM (King of Prussia, Pa.).” for “Sigma.”
as §2, §4
as §3, with “In a typical Ki determination, into each well of a 96 well plate is pipetted […] of substrate solution, […] of test compound solution, and the plate allowed to thermally equilibrate at 37° C. in a Molecular Devices plate reader for>15 minutes. Reactions” for “Reactions”
Plasmin: Plasmin activity was assessed as the ability to hydrolyze the N-p-Tosyl-Gly-Pro-Lys-p-nitroanilide. Substrate solutions were prepared at a concentration of 37 mM (37 mM<<Km=243 mM) in assay buffer. Final DMSO concentration was 4.3%. Purified human plasmin was diluted into assay buffer to a concentration of 240 nM. Final reagent concentrations were: [Plasmin]=8 nM, [N-p-Tosyl-Gly-Pro-Lys-p-nitroanilide]=37 mM.

[6] = target: T6, bovine trypsin (Bos taurus, UniProt P00760); test: In vitro inhibition of purified enzymes: trypsin, hydrolysis of N-benzoyl-Phe-Val-Arg-p-nitroanilide; conditions: for Ki: 37° C., pH 7.5
T6 construct: Purified bovine trypsin was diluted into assay buffer; purchased Sigma T8642
T6 sequence (P00760 24-246): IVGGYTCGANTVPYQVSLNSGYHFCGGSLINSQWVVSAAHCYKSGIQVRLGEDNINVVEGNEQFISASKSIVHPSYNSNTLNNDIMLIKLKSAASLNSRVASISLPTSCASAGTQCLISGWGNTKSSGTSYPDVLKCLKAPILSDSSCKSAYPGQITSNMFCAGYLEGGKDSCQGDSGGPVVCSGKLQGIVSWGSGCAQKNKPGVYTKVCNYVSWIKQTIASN
Description: as §1, with “Sigma. N-succinyl-Ala-Ala-Pro-Arg-p-nitroanilide (BACHEM L-1720) and N-succinyl-Ala-Ala-Pro-Val-p-nitroanilide (BACHEM L-1770) were obtained from BACHEM (King of Prussia, Pa.).” for “Sigma.”
as §2, §4
as §3, with “In a typical Ki determination, into each well of a 96 well plate is pipetted […] of substrate solution, […] of test compound solution, and the plate allowed to thermally equilibrate at 37° C. in a Molecular Devices plate reader for>15 minutes. Reactions” for “Reactions”
Trypsin: Trypsin activity was assessed as the ability to hydrolyze N-benzoyl-Phe-Val-Arg-p-nitroanilide. […] Final DMSO concentration was 4.3%. Purified bovine trypsin was diluted into assay buffer to a concentration of 120 nM. Final reagent concentrations were: [Trypsin]=4 nM, [N-benzoyl-Phe-Val-Arg-p-nitroanilide]=13 mM.

T5 sequence (P00747 581-810 limits assumed): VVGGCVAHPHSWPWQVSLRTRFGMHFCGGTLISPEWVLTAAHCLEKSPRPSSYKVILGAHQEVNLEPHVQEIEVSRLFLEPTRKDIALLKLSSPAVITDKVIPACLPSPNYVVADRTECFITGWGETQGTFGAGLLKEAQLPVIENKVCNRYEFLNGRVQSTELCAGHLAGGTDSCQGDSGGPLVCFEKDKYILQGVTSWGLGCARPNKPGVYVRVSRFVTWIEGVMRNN
T5 sequence (P00747 97-580 partner limits assumed): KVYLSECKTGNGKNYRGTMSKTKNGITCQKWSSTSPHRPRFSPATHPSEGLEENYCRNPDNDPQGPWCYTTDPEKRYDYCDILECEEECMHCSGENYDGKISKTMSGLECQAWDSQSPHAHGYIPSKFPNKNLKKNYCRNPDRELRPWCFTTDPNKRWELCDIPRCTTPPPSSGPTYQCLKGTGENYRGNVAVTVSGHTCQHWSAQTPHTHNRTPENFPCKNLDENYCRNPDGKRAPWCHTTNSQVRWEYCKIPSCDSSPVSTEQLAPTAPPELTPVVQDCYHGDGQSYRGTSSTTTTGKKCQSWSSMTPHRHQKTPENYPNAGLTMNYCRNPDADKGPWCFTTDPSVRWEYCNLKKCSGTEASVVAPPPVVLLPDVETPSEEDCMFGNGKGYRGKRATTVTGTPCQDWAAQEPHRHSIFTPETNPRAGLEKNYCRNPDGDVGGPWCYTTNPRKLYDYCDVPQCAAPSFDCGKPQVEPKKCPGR
T2 sequence (P00742 235-488 limits assumed): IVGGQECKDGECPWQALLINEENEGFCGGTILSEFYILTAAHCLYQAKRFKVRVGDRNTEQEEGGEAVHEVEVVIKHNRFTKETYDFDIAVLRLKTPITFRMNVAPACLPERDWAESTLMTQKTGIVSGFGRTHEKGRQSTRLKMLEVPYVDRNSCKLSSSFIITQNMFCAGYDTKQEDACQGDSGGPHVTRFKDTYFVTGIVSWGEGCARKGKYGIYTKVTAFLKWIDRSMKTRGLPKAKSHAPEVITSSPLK
T2 sequence (P00742 41-179 partner limits assumed): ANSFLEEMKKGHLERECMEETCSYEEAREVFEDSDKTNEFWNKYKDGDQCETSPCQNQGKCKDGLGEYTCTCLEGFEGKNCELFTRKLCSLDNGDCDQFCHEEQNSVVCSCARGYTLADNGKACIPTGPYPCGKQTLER

## Cc1ccc(NS(=O)(=O)Cc2ccccc2)c(=O)n1CC(=O)NCCCONC(=N)N.O=C(O)C(F)(F)F [Example 1, 3-Benzylsulfonylamino-6-methyl-1-[(3-guanidinooxypropyl)aminocarbonylmethyl]-2-pyridinone trifluorocaetate]
[1]
  Ki: 0.053 µM
[2]; at 24,000 nM
  % Inhibition FXa: 0 @ %
[3]; at 24,000 nM
  % Inhibition Chymo.: 0 @ %
[4]; at 24,000 nM
  % Inhibition Elastase: 0 @ %
[5]; at 24,000 nM
  % Inhibition Plasmin: 0 @ %
[6]; at 24,000 nM
  % Inhibition Trypsin: 0 @ %

## Cc1ccc(NS(=O)(=O)Cc2ccccc2)c(=O)n1CC(=O)NCCONC(=N)N [Example 2, 3-Benzylsulfonylamino-6-methyl-1-[(2-guanidinooxyethyl)aminocarbonylmethyl]-2-pyridinone trifluoroacetate]
[1]
  Ki: 0.0079 µM
[2]
  Ki: 24 µM
[3]; 37° C., pH 7.5, read-out: Ki Chymo.
  Ki: 14 µM
[4]; at 24,500 nM
  inhibition at 24.5 µM: 0%
[5]; at 24,500 nM
  inhibition at 24.5 µM: 0%
[6]; at 24,500 nM
  inhibition at 24.5 µM: 0%

## N=C(N)NOCCNC(=O)Cn1cccc(NS(=O)(=O)Cc2ccccc2)c1=O [Example 4, 3-Benzylsulfonylamino-1-[(2-guanidinooxyethyl)aminocarbonylmethyl]-2-pyridinone trifluoroacetate]
[1]
  Ki: 0.029 µM
[2]
  Ki: 7.9 µM
[4]; at 79,000 nM
  inhibition at 79 µM: 0%

## Cc1cccc(S(=O)(=O)Nc2ccc(C)n(CC(=O)NCCONC(=N)N)c2=O)c1 [Example 5, 3-(3-Methylphenylsulfonyl)amino-6-methyl-1-[(2-guanidinooxyethyl)aminocarbonylmethyl]-2-pyridinone trifluoroacetate]
[3]; at 24,600 nM, read-out: % Inhibition Chymo.
  inhibition at 24.6 µM: 0%
[4]; at 24,600 nM
  inhibition at 24.6 µM: 0%
[5]; at 24,600 nM
  inhibition at 24.6 µM: 0%
[6]; at 24,600 nM
  inhibition at 24.6 µM: 0%

## Cc1ccc(NS(=O)(=O)Cc2ccccc2)c(=O)n1CC(=O)N1CCC(ONC(=N)N)CC1 [Example 8, 3-(Benzylsulfonyl)amino-6-methyl-1-[(4-guanidinooxy)piperidinylcarbonylmethyl]-2-pyridinone trifluoroacetate]
[1]
  Ki: 0.043 µM
[4]; at 56,000 nM
  inhibition at 56 µM: 0%
[6]; at 56,000 nM
  inhibition at 56 µM: 0%

## Cc1ccc(NS(=O)(=O)Cc2ccc(Cl)cc2)c(=O)n1CC(=O)NCCONC(=N)N [Example 16, 3-(4-Chlorobenzylsulfonyl)amino-6-methyl-1-[(2-guanidinooxyethyl)aminocarbonylmethyl]-2-pyridinone trifluoroacetate]
[1]
  Ki: 0.002 µM
[2]
  Ki: 2.2 µM
[4]; at 19,000 nM
  inhibition at 19 µM: 0%
[6]
  Ki: 4 µM

## Cc1ccc(NS(=O)(=O)Cc2ccc(Cl)c(Cl)c2)c(=O)n1CC(=O)NCCONC(=N)N [Example 24, 3-(3,4-Dichlorobenzylsulfonyl)amino-6-methyl-1-[(2-guanidinooxyethyl)aminocarbonylmethyl]-2-pyridinone trifluoroacetate]
[1]
  Ki: 0.002 µM
[2]
  Ki: 2.2 µM
[4]; at 18,000 nM
  inhibition at 18 µM: 0%
[6]
  Ki: 7.6 µM

## Cc1ccc(NS(=O)(=O)c2ccccc2Cl)c(=O)n1CC(=O)NCCONC(=N)N [Example 30, 3-(2-Chlorophenylsulfonyl)amino-6-methyl-1-[(2-guanidinooxyethyl)aminocarbonylmethyl]-2-pyridinone trifluoroacetate]
[1]
  Ki: 0.061 µM
[2]
  Ki: 7.6 µM
[3]; at 23,500 nM, read-out: % Inhibition Chymo.
  inhibition at 23.5 µM: 0%
[4]; at 23,500 nM
  inhibition at 23.5 µM: 0%
[5]; at 23,500 nM
  inhibition at 23.5 µM: 0%
[6]; at 23,500 nM
  inhibition at 23.5 µM: 0%

## COc1ccc(Br)cc1S(=O)(=O)Nc1ccc(C)n(CC(=O)NCCONC(=N)N)c1=O [Example 55, 3-(3-Bromo-6-methoxyphenylsulfonyl)amino-6-methyl-1-[(2-guanidinooxyethyl)aminocarbonylmethyl]-2-pyridinoine trifluoroacetate]
[1]
  Ki: 0.22 µM
[2]
  Ki: 2.1 µM
[6]
  Ki: 2.3 µM
